“Also recorded” adds a separate entry of the source.
Experiments:
[1] = test system: Human Platelet Aggregation; details: in vitro; cited from earlier work
[2] = test system: steroidogenesis in the adrenal glands; details: hypophysectomized rats; cited from earlier work
[3] = test system: smooth muscle of the vas deferens; details: mammalian male reproductive system; cited from earlier work
[4] = test system: adrenergic nerve endings; details: guinea pig; cited from earlier work
[5] = test system: female reproductive system; details: in vivo; cited from earlier work
[6] = test system: motor pathways in the central nervous system; details: cited from earlier work
[7] = test system: rabbit aortic strip; assay: Cascade Assay, aorta (smooth muscle stimulant effect); format: cell-based; details: superfused, 50% of maximum (PGA2)
Summary of the method: (§1)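 Rabbit aortic strip (4 g tension), rat stomach fundus, rat colon and chick rectum (1 g) in cascade, superfused at 10 ml/min with 37° C Krebs containing cholinergic, adrenergic, serotonin and histamine blockers. Doses of 0.001–100,000 ng dripped on at 10–20 min intervals; maximal tension rise gave graphical ED50 per tissue.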

[8] = test system: chick rectum; assay: Cascade Assay, rectum (smooth muscle stimulant effect); format: cell-based; details: superfused, 50% of maximum (PGE1)
Summary of the method: as §1

[9] = test system: rat stomach fundus; assay: Cascade Assay, stomach (smooth muscle stimulant effect); format: cell-based; details: superfused, 50% of maximum (PGE1)
Summary of the method: as §1

[10] = test system: Blood Pressure and Heart Rate; assay: Effects on Blood Pressure and Heart Rate in the Anesthetized Cat; format: in vivo; details: intravenous, 0.01 to 10.0 mcg/kg, scored only on hypotension
Summary of the method: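 Cats of either sex anesthetized with pentobarbital sodium (35 mg/kg i.v.) plus barbital sodium (100 mg/kg i.v.), femoral arterial pressure and ECG-driven heart rate recorded. Compound given i.v. at one-log increasing doses, 0.01–10.0 mcg/kg, every 10 min. ED50 mmHg (dose lowering blood pressure by 50 mmHg) derived graphically from hypotension.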

[11] = test system: Guinea Pig Trachea; assay: Effects on the Guinea Pig Trachea in Vitro; format: cell-based; details: 0.01 to 10.0 mcg/ml, versus PGE1 0.1 mcg/ml, R = relaxation, C = contraction
Method: A male guinea pig weighing 200-500 g was killed by a blow on the head. A 20 mm length of the trachea was dissected from the animal, transferred to a petri dish containing Krebs' solution (aerated with 95% O2 and 5% CO2 at 37° C), and cut longitudinally opposite the tracheal muscle. The tissue was then cut transversely three quarters of the distance across, a second cut in the opposite direction (again three quarters of the distance across the tissue) was made and the procedure was continued for the whole tissue. The ends of the trachea were pulled to form a zig-zag shaped strip. The tracheal strip used in the experiment was approximately 30 mm when extended under 0.25-0.5 g load in the tissue bath. Cotton thread was tied to one end of the tissue, and linen thread to the other. It was attached via the linen thread to a glass hook in a 5 ml isolated tissue bath containing Krebs' solution (37° C, aerated with a mixture of 95 % O2 and 5% CO2). […]
A test compound was then added to the same two strips at bath concentrations of 0.01, 0.1, 1.0, and 10.0 mcg/ml and the effects of the compound were recorded. […] The mean of the effects of the test compound on the two strips was then calculated for each concentration, and, based on the resulting values, an activity value was assigned as follows: […]

[12] = test system: rat colon; assay: Cascade Assay, colon (smooth muscle stimulant effect); format: cell-based; details: superfused, 50% of maximum (PGF2α)
Summary of the method: as §1

[13] = test system: Rat Uterus; assay: Effects on the Rat Uterus in Vitro; format: cell-based; details: Rattus norvegicus; in vitro, 29° C; response 50% that of carbachol; read-out: Test F Rat Uterus, Activity Value (ED50)
Summary of the method: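 Uterine segments came from rats (140–160 g) given 1 mg/kg diethylstilbestrol s.c. 18 h earlier. Tissue was held isometrically at 1 g tension in de Jalon solution at 29 °C, gassed with 95% O2/5% CO2. Compound was tested at 0.001–10 mcg/ml in log steps, every 10 min with washes, and ED50 was derived graphically as 50% of the second carbachol (1 mcg/ml) response.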

[14] = test system: Gastric Secretion; assay: Effects on Gastric Secretion in the Rat; format: in vivo; details: pylorus-ligated rat, subcutaneous, 2 x 1.5 mg/kg (total 3.0 mg/kg), 4 hours
Summary of the method: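 Rats (150-200 g, groups of six) fasted 48 h, pylorus ligated under ether. Compounds given s.c. in phosphate buffer pH 7.38 at 1.5 mg/kg immediately post-surgery and 2 h later (total 3.0 mg/kg). At 4 h, gastric volume and total acid (titration with 0.1 N NaOH, mEq) compared with vehicle controls by t-test.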

## CCCCC[C@H](O)/C=C/[C@H]1[C@H](O)CC(=O)[C@@H]1CCCCCCC(=O)O [PGE1, prostaglandin E1]
[1]
  inhibition of aggregation of human platelets, in words (natural prostaglandin): displays a similar activity
[2]
  steroidogenesis in the adrenal glands: stimulate steroidogenesis in the adrenal glands
[3]
  contraction of smooth muscle of the vas deferens: contracts the smooth muscle of the vas deferens
[4]
  transmitter release from adrenergic nerve endings: inhibit transmitter release from adrenergic nerve endings

## CCCCC[C@H](O)/C=C/[C@@H]1[C@@H](C/C=C\CCCC(=O)O)[C@@H](O)C[C@H]1O [PGF2α]
[5]
  effect in the female reproductive system (fertility, labor, abortion): contragestational effects; also recorded: induces spontaneous abortions in early pregnancy
[6]
  transmission in motor pathways: facilitates transmission in motor pathways

## COC(=O)CCCCCC[C@H]1C(=O)C=C[C@H]1/C=C/[C@@H](O)C1CC2(CCC2)C1 [TR-4126, Methyl 7-{5-oxo-2R-[3S-hydroxy-3-(spiro[3.3]hept-2-yl)-1E-propenyl]cyclopent-3-en-1R-yl}heptanoate]
[7]
  Test E Cascade Assay, Aorta, Activity Value (ED50): 0 (>10000)
[8]
  Test E Cascade Assay, Rectum, Activity Value (ED50): 0 (>10000)
[9]
  Test E Cascade Assay, Stomach, Activity Value (ED50): 0 (>10000)
[10]
  Test D Activity Value (ED50 mmHg, decrease in blood pressure): 0 (>10.0)
[11]
  Test G Guinea Pig Trachea, Activity Value: Cl

## O=C1C[C@@H](O)[C@H](/C=C/[C@@H](O)C2CC3(CCC3)C2)[C@H]1CCCCCCCO [TR-4714, 7-{3R-hydroxy-5-oxo-2R-[3S-hydroxy-3-(spiro[3.3]hept-2-yl)-1E-propenyl]cyclopent-1R-yl}heptan-1-ol]
[7]
  Test E Cascade Assay, Aorta, Activity Value (ED50): 0 (>10000)
[8]
  Test E Cascade Assay, Rectum, Activity Value (ED50): 0 (>10000)
[9]
  Test E Cascade Assay, Stomach, Activity Value (ED50): 0 (>10000)
[12]
  Test E Cascade Assay, Colon, Activity Value (ED50): 0 (>10000)
[13]
  EC50: > 10 µg/mL
[14]
  Test B Activity Value (% decrease in acidity, inhibition of gastric secretion): 0 (<26)
[11]
  Test G Guinea Pig Trachea, Activity Value: Cl
